Measured values from ChEMBL document CHEMBL1201862, “PubChem BioAssay data set” (2004).
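Values below derive from 48-hour exposures of cells grown in 96-well plates, with endpoints linearly interpolated between the two concentrations bracketing the appropriate inhibition level. GI50 is the concentration that inhibits growth by half.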 Activity calls are given as the source filed them. Rule as the data show it: active = GI50 up to about 1.1 µM and inactive = higher.

Columns and labels:
Assay in all cases: NCI tumour cell line growth inhibition, 48 h
[1] = system: MDA-N
[2] = system: BT-549
[3] = system: MDA-MB-435
[4] = system: DU-145
[5] = system: T47D
[6] = system: LXFL 529

Measured: GI50

COC(=O)N1CC2C3C4CC(C(c5ccccc5)=C4c4ccccc4)C3C21 (stereo unspecified)
inactive: [1] 20.4 µM | [2] 16 µM | [3] 15.2 µM | [4] 14.7 µM | [5] 9.82 µM

Cc1ccccc1NC(=O)C(=O)C(C1OC(=O)c2ccccc21)[N+](=O)[O-] (stereo unspecified)
inactive: [6] > 100 µM
